From US20090175981A1, “COMPOSITIONS, METHODS AND USES FOR A NOVEL FAMILY OF PEPTIDES” (priority 2004, published 2009)
“And” between values parts separate entries of the source, which are not always exact repeats. Equal entries are not always repeated. Marks after values point to notes of the source that are not given here.

Legend:
straight run broilers = assay: Growth and feed conversion of 3-wk old broilers in batteries, pelleted starter feed (Studies 3-1 and 3-2); assay type: in vivo, chicken; details: BT1583 12 ppm, BMD 50 ppm, COB 90 ppm, alone or combined, pelleted feed
From the text: Eight (8) study repetitions per treatment were used, again with 4 birds per pen.

broiler chickens = assay: 42-day broiler floor pen trial with natural colibacillosis challenge; assay type: in vivo, chicken; details: for Day 42 Feed/Gain / Day 42 Gain/Bird / Day 42 Mortality (%) / Day 42 Adjusted Feed/Gain: MON 99 ppm, BT1583 12 ppm, BMD 55 ppm; for Day 42 Feed/Gain / Day 42 Gain/Bird: alone or combined; for Day 42 Mortality (%): acute and chronic colibacillosis; for Day 42 Adjusted Feed/Gain: adjusted for weight of mortality
Description: A broiler floor pen trial to compare the performance of a new anti-microbial designated for this project as BT1583 alone and in combination with the widely used coccidiostat monensin (MON) to MON fed alone, MON in combination with the also widely used antimicrobial Bacitracin MD (BMD) and BMD alone.
The following levels of each treatment were evaluated:
The study design included 10 pens per treatment and 40 birds per pen housed on day of hatch. Two basal corn-soy based diets of decreasing protein (approximately 23 to 20%) and increasing metabolizable energy (approximately 1400 to 1455 kcal/lb) were used from Day 0 to 21 (starter feed) and Days 22 to 42 (grower feed), respectively. Treatment premixes were measured and blended into diets at required levels. Between days 0 and 21 mortality was less than 1% with all birds growing optimally and of high health across all groups.
Beginning on study day 22, the study director modulated house temperature and air flow to mimic industry conditions conducive to outbreaks of colibacillosis within naïve broiler flocks. This was done to stimulate a natural challenge for this study. Mortality climbed to a house average of approximately 10% by Day 42. A majority of these deaths occurred in groups not receiving BT1583 or MON. Lesions were consistent with those of colibacillosis (air sac, pneumonia, peri-hepatitis, peri-carditis and extreme morbidity). All mortality was documented (weight at death and post-mortem observations). All birds and feeds were weighed at 42 days. All remaining birds were euthanized on Day 42 by asphyxiation with the carcasses submitted for rendering.
The following variables were tested: Response Variables: Gain Per Bird, Feed Per Gain, Mortality (%), Adjusted Feed Per Gain. F test from One Way ANOVA with one blocking factor=location, at Day 42 using 0.05 level of significance.
All Response Variables: LSD T-test procedure for pair-wise comparisons with Type 1 error of means when ANOVA F ratio is significant, overall significance level of 0.05 used. Lines below means (see Table 30, below) indicate groups with insignificant differences in means.
Adjusted Feed/Gain: The total weight of mortality in each pen was added to the final live weight, that value reduced by subtracting the initial weight and then dividing that value into the Total feed consumed to calculate the Adjusted Feed/Gain.

[1] = test system: A-domain of BT NRPS Module 2 (Bt2A); assay: ATP-PPi exchange assay, Module 2 A-domain; assay type: biochemical, Brevibacillus texasporus; details: 0.5 mM amino acid
Description: (§1) Cloning, overexpression, and purification of His10-tagged BT A-domain proteins. DNA fragments encoding the A-domains of the BT NRPS Modules 8, 5, 7, 4 and 2 (Bt8A, 8t5A, Bt7A, Bt4A and Bt2A) were PCR-amplified and the PCR products were inserted into the His10-tag recombinant protein expression vector pET16b (Novagen). The A-domain borders were determined as defined by (Konz, et al., 1999). The expression constructs were transformed into the E. coli BL21-AI strain (Invitrogen). Transformants were grown in L-broth at 37° C. to an A600 of 0.6 and then induced with 1 mM IPTG (isopropyl-β-D-thiogalactopyranoside) plus 0.2% L-arabinose. The cells were allowed to grow for two additional hours at 30° C. before being harvested. Purification of the His10-tag recombinant proteins was achieved using the TALON metal affinity resins (BD Biosciences) under conditions recommended in the manual with modifications. Briefly, the E. coli cells were broken by sonication. Cell lysates were cleared by centrifugation at 25,000×g for one hour. His-tagged recombinant proteins were then incubated with the TALON resin, washed, and eluted with 500 mM imidazole. Eluted proteins were dialyzed against a buffer (50 mM HEPES, pH 8.0, 100 mM sodium chloride, 10 mM magnesium chloride, and 1 mM EDTA) and then analyzed with SDS PAGE plus Coomassie Blue staining. […] Concentrations of the purified proteins were determined by using the calculated molar extinction coefficient for the A280.
(§2) ATP-PPi exchange assay. ATP-PPi exchange assays were performed to determine the substrate specificity of an A-domain. ATP-PPi exchanges were assayed as previously described (Stachelhaus, et al., 1998) with minor modifications. The assay mixture contained 50 mM HEPES (pH 8.0), 100 mM NaCl, 10 mM MgCl2, 2 mM ATP, 0.5 mM amino acid, 0.05 mM PPi, 0.15 μCi tetrasodium [^32P]pyrophosphate. Exchange was initiated by addition of purified recombinant A-domain proteins to a total volume of 0.1 ml. The protein concentrations were 0.2 μM for Module 4 and Module 5 A-domains while 2 μM for Module 7 and Module 8 A-domains. After incubation at 37° C. for 15 min, the reaction was stopped by addition of 0.5 ml of Terminaton Mix (100 mM tetrasodium pyrophosphate, 3.5% HClO4, and 1.6% [w/v] activated charcoal). The charcoal was pelleted by centrifugation, washed first with 40 mM pyrophosphate plus 1.4% perchloric acid and then with water, and was re-suspended in 0.5 ml of water. The charcoal/water suspension was added to a scintillation vial containing 5.0 ml of scintillation fluid, and the bound radioactivity was determined by liquid scintillation counting. The apparent Km values were determined with substrate concentrations ranging from 0.1 to 10 mM.
(§3) Since a purified recombinant A-domain of an NRPS module can selectively and efficiently activate the cognate amino acid substrate of the NRPS module in an ATP-PPi exchange assay (Konz, et al., 1999; Mootz & Marahiel, 1997), ATP-PPi exchange assays have been used to experimentally establish NRPS module specificities and novel NRPS codons. Recombinant A-domains of Modules 8, 5, 7, 4 and 2 of the BT NRPS were produced and purified as described in Methods and Materials. Almost completely soluble recombinant A-domain proteins were obtained. A-domain specificities were determined in ATP-PPi exchange and aa Km assays (see Methods and Materials), and the results are shown in FIG. 5. […]

[2] = target: A-domain of BT NRPS Module 8 (Bt8A) (Brevibacillus texasporus, UniProt Q2VQ14); assay: ATP-PPi exchange assay, Module 8 A-domain; assay type: biochemical; details: for relative activation (highest activity = 100%): 0.5 mM amino acid
A-domain of BT NRPS Module 8 (Bt8A), sequence (Q2VQ14 entry or part of it): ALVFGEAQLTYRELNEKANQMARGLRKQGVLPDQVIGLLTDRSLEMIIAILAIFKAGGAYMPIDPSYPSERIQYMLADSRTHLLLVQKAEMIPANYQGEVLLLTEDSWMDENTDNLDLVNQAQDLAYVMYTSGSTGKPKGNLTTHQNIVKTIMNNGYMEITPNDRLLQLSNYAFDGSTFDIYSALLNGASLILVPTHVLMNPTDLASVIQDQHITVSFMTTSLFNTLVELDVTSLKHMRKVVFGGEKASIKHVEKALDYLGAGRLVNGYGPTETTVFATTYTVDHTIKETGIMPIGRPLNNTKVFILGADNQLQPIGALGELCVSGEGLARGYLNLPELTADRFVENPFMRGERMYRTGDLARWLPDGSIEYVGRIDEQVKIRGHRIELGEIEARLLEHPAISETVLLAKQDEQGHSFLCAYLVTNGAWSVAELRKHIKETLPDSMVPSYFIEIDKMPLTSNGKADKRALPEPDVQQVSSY
Description: as §1
(§4) ATP-PPi exchange assay. ATP-PPi exchange assays were performed to determine the substrate specificity of an A-domain. ATP-PPi exchanges were assayed as previously described (Stachelhaus, et al., 1998) with minor modifications. The assay mixture contained 50 mM HEPES (pH 8.0), 100 mM NaCl, 10 mM MgCl2, 2 mM ATP, 0.5 mM amino acid, 0.05 mM PPi, 0.15 μCi tetrasodium [^32P]pyrophosphate. Exchange was initiated by addition of purified recombinant A-domain proteins to a total volume of 0.1 ml. The protein concentrations were 0.2 μM for Module 4 and Module 5 A-domains while 2 μM for Module 7 and Module 8 A-domains. […] The charcoal/water suspension was added to a scintillation vial containing 5.0 ml of scintillation fluid, and the bound radioactivity was determined by liquid scintillation counting. […]
as §3, with “Recombinant A-domains of Modules 8, 5, 7, 4 and 2 of the BT NRPS were produced and purified as described in Methods and Materials. Almost completely soluble recombinant A-domain proteins were obtained.” left out

[3] = target: A-domain of BT NRPS Module 5 (Brevibacillus texasporus, UniProt Q2VQ15); assay: ATP-PPi exchange assay, Module 5 A-domain; assay type: biochemical; details: for relative activation (highest activity = 100%): 0.5 mM amino acid; for Km: read-out: apparent Km
A-domain of BT NRPS Module 5, sequence (Q2VQ15 entry or part of it): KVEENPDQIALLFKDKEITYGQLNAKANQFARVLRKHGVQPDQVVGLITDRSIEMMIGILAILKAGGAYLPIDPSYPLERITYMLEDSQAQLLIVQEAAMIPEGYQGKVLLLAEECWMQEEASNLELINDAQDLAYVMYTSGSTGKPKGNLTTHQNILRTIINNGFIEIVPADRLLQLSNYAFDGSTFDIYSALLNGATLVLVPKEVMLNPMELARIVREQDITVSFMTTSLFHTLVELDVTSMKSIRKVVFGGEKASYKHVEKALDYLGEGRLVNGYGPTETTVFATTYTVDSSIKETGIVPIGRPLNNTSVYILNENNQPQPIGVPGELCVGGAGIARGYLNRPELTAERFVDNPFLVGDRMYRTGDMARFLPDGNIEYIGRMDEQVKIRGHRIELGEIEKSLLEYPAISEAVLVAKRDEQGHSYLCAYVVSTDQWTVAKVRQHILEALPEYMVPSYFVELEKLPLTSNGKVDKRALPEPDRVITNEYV
Description: as §1, §2, §3

[4] = target: A-domain of BT NRPS Module 4 (Bt4A) (Brevibacillus texasporus, UniProt Q2VQ15); assay: ATP-PPi exchange assay, Module 4 A-domain; assay type: biochemical; details: for relative activation (highest activity = 100%): 0.5 mM amino acid
A-domain of BT NRPS Module 4 (Bt4A), sequence (Q2VQ15 entry or part of it): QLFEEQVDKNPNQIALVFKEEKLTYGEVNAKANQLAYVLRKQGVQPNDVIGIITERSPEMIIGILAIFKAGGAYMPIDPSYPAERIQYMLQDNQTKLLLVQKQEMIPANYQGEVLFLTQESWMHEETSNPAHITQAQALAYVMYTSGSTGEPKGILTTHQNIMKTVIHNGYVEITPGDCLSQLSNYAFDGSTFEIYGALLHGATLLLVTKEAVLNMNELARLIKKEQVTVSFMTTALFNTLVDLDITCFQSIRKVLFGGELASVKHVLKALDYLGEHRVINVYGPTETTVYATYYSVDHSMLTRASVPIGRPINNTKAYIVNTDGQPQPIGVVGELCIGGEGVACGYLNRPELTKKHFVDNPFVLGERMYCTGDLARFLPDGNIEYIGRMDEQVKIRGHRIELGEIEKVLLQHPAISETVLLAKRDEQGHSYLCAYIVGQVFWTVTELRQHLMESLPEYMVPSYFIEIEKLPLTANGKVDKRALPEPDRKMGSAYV
Description: as §1, §4
as §3, with “Recombinant A-domains of Modules 8, 5, 7, 4 and 2 of the BT NRPS were produced and purified as described in Methods and Materials. Almost completely soluble recombinant A-domain proteins were obtained.” left out

[5] = target: A-domain of BT NRPS Module 7 (Bt7A) (Brevibacillus texasporus, UniProt Q2VQ15); assay: ATP-PPi exchange assay, Module 7 A-domain; assay type: biochemical; details: 0.5 mM amino acid
A-domain of BT NRPS Module 7 (Bt7A), sequence (Q2VQ15 entry or part of it): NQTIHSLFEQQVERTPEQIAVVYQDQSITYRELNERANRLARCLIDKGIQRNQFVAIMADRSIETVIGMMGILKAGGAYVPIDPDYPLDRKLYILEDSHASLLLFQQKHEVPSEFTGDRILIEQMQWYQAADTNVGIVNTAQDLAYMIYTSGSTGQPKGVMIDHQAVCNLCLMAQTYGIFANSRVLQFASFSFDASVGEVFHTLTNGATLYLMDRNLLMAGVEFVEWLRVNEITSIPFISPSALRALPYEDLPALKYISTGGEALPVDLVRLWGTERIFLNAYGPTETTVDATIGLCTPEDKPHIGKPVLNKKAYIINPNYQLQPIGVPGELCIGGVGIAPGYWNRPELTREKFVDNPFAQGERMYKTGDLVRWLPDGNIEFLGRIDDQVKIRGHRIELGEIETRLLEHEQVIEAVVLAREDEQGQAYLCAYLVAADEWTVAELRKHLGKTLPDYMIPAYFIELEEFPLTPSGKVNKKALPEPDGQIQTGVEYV

Compound: Bacitracin MD [BMD, reference compound]
- 20-day cumulative feed conversion rate, Mean (straight run broilers): 1.3397
- 21-day cumulative feed conversion rate, Estimated Marginal Mean (straight run broilers): 1.340
- 21-day cumulative weight gain, Mean (straight run broilers): 832.9688 and 832.969
- Day 42 Feed/Gain (broiler chickens): 2.147^c
- Day 42 Gain/Bird (broiler chickens): 3.971^cd lb
- Day 42 Mortality (%) (broiler chickens): 18.25^bc %
- Day 42 Adjusted Feed/Gain (broiler chickens): 1.838^bc

Compound: N[C@@H](Cc1ccccc1)C(=O)O [L-Phe]
- relative activation (highest activity = 100%) [1]: 3.5%

Compound: CC[C@H](C)[C@H](N)C(=O)O [L-Ile]
- relative activation (highest activity = 100%) [2]: 4%
- relative activation (highest activity = 100%) [3]: 23%
- Km [3]: 2780 µM
- relative activation (highest activity = 100%) [4]: 100%
- Km ([4]; read-out: apparent Km): 500 µM
- relative activation (highest activity = 100%) [1]: 19%

Compound: NCCCC[C@H](N)C(=O)O [L-Lys]
- relative activation (highest activity = 100%) [2]: 10%
- activation [5]: only amino acid that activated

Compound: CC(C)[C@H](N)C(=O)O [L-Val]
- relative activation (highest activity = 100%) [2]: 100%
- Km ([2]; read-out: apparent Km): 2750 µM
- relative activation (highest activity = 100%) [3]: 100%
- Km [3]: 1110 µM
- relative activation (highest activity = 100%) [4]: 9%
- relative activation (highest activity = 100%) [1]: 67%

Compound: CC(C)C[C@H](N)C(=O)O [L-Leu]
- relative activation (highest activity = 100%) [3]: 17%
- relative activation (highest activity = 100%) [4]: 7%
- relative activation (highest activity = 100%) [1]: 98%

Compound: CSCC[C@H](N)C(=O)O [L-Met]
- relative activation (highest activity = 100%) [1]: 100%

Compound: CC[C@@]1([C@@H]2O[C@@H]([C@H]3O[C@@](O)(CO)[C@H](C)C[C@@H]3C)C[C@@H]2C)CC[C@H]([C@]2(C)CC[C@]3(C[C@H](O)[C@@H](C)[C@@H]([C@@H](C)[C@@H](OC)[C@H](C)C(=O)O)O3)O2)O1 [Monensin, monensin]
- 20-day cumulative feed conversion rate, Mean (straight run broilers): 1.3712
- 21-day cumulative feed conversion rate, Estimated Marginal Mean (straight run broilers): 1.371
- 21-day cumulative weight gain, Mean (straight run broilers; listed as COB): 792.8438 and 792.844
- Day 42 Feed/Gain (broiler chickens): 1.854^b
- Day 42 Gain/Bird (broiler chickens): 4.111^bcd lb
- Day 42 Mortality (%) (broiler chickens): 8.00^a %
- Day 42 Adjusted Feed/Gain (broiler chickens): 1.761^b
- mortality rate compared with non-supplemented controls (broiler chickens; alone or in combination): lower mortality rates
